From US20190209697A1, “CELLS LABELLED WITH LIPID CONJUGATES AND METHODS OF USE THEREOF” (priority 2015, published 2019)

System: Jurkat cells
Experiment: Efficiency of incorporation of AF488-capped glycopolymers into cell membranes, flow cytometry
Format: cell-based
Settings: 10 μM AF488-capped polymer, 1 h at RT
Experimental: Using AF488 labeled polymers, the efficiency with which each glycopolymer was incorporated into cell membranes was measures. Jurkat cells (10^7/mL in serum-free media) were incubated for 1 h at room temperature with 10 μM lipid-conjugated glycopolymer, washed, and then measured for fluorescence by flow cytometry (FIG. 4, panel A).
Jurkat cells were incubated with 10 μM of AF488-capped polymer for 1 h at RT, washed and their fluorescence measured by flow cytometry. […] For FIG. 4-FIG. 5, shown are mean minus background+/−standard deviation of three replicate experiments.
Jurkat cells (10^7/mL) were incubated with AF488-polymers at the given concentration or PBS in serum free media for 1 hr at RT. The cells were then washed, and their fluorescence measured by flow cytometry. Shown are mean and standard deviation of three replicate experiments minus background as measured by cells incubated with PBS instead of polymer.

Substance: DMPC
- level of incorporation into cell membranes: highest levels of incorporation
